Laboratory results reported in patent US11364280B2, “Method for blocking stress-induced tumor progression” (Taipei Veterans General Hospital, priority 2018, dated 2022).
pEC50, pKd: −log10 of the molar value. No end group written: not given here.

Experiments:
[1] = tested on: MSI1/AGO2 downstream mRNA; assay: qRT-PCR of downstream mRNA targets of MSI1-AGO2, hypoxia versus normoxia; assay type: cell-based, human; conditions: six targets
Method: FIG. 4A provides a schematic illustrating the full-length and C-terminal (C-term) fragment of human MSI1. The construct of MSI1 C-term was sub-cloned into p-3×Flag-Myc-CMV expression vector. […] Quantification of the fold changes of binding signals was performed by normalizing IP signals to IgG-precipitated controls. The peaks indicated MSI1 or AGO2 palindromic-binding sequence. […] Purified total RNA was subjected to RT-PCR using primers specific for NF2, TP53, CDKN1A, CCND1, CDK4, and HELLS. The mRNA levels under hypoxia were normalized with that under normoxia and presented as relative fold changes in the chart. […] The relative fold change of the number of viable cells in each day was presented in the graph. […] Xenograft tumor size was monitored from day 2 after injection of Flag-control or Flag-C-term. […] Tumor size was then monitored for 22 days. The expression of MIS1-C-term in the xenograft tumor tissue was assessed by Western blot. […] […]
Oligonucleotide specificity was computer tested (BLAST, National Center for Biotechnology Information. Bethesda. Md., USA) by homology search with the human genome and later confirmed by melting curve analysis. […] Signals were detected using 7900HT Fast Real-time PCR system (Applied Biosystems, Foster City, Calif., USA). […]

MSI1/AGO2 interaction [2] = molecular target: T1, MSI1/AGO2 interaction (Homo sapiens, UniProt Q9UKV8); assay: Split Gaussia luciferase reconstitution reporter assay; assay type: cell-based; parameters: expressed in transfected cells; lysates used for the in vitro read-out; conditions: 10 μM peptide; in vitro and in vivo
Method: (§1) The relative orientation of peptide-binding site and AGO2 pocket was depicted. […] The recombinant AGO2 protein was immobilized on CM5 chip and incubated with a serial dilution (from 625 to 10000 nM) of the two peptides, respectively. The association and dissociation between TAT-11, TAT-26 and immobilized AGO2 were tested by SPR (top). The association rate constant (Ka), dissociation rate constant (Kd), and equilibrium dissociation constant (KD) were calculated and presented in the chart (bottom).
FIG. 14A provides schematic presentation of the constructs of full-length, C-terminus, and N-terminus of MSI1 as well as wild-type AGO2 for purifying recombinant proteins. FIG. 14B provides pull-down assay with recombinant MSI1 and AGO2 proteins showing that the C-terminus of MSI1 is essential for the direct MSI1/AGO2 interaction. […] FIG. 14D provides the schematic illustration of the split luciferase reconstitution imaging system to real-time monitor the interaction between MSI1 and AGO2.
To use Gaussia luciferase (Gluc) for detecting protein-protein interaction, we split Gaussia luciferase into NGluc (N-terminal Gluc, 106 a.a.) and CGluc (C-terminal Glue. 79 a.a.)^53,54. The two fragments were amplified by polymerase chain reaction (PCR) and subjected to construct fusion protein with MSI1 and AGO2 by the pcDNA 3.1 and pCMV backbone, respectively. Each fusion protein contains a flexible linker (GGGGS)2 between the protein and polypeptides of split luciferase^55,56. Stable cell lines were obtained by stable transfection of both fusion protein expressive plasmids in 05 MG GBM cell line with Hygromycin B (Sigma Aldrich Co., St. Louis, […]., USA) and G418 sulfate (Merck Co., Berlin, Germany). […] The bioluminescent signals were acquired by Wallac 1420 Victor^2 Microplate Reader (Perkin Elmer, Waltham. Mass., USA) equipped with auto-dispenser to avoid rapid decay of GLuc. […] The region of interests (ROI) was automatically chosen by the Living Image 4.2 software and quantified as photon flux in a certain area per second (photons/s/cm^2).

05 MG cells = assay: Cellular uptake of fluorescein labeled peptides, fluorescence read by ELISA reader; conditions: for time to significant cellular uptake: 05 MG cells; for pEC50: read-out: half-uptake concentration (EC50), fluorescein labeled peptides, 05 MG cell line
Method: The biological activity of peptides was tested in 05 MG cell line. The cells were treated with different concentration of fluorescein labeled peptides and was measured using ELISA reader.
(§2) After 0.5, 1, 2, 4 and 6 hours, cell lysates were collected and the fluorescent intensity was detected by ELISA reader. N=3 at each time point. […] Cells were washed and observed under microscopy at the indicated time points. […] To facilitate comparison of intake and degradation dynamics, mean fluorescence values were normalized to stating fluorescence. All data represent three independent experiments.

in vitro = conditions: human
Method: as §2

[3] = molecular target: T2, His-tagged AGO2 recombinant protein (Homo sapiens, UniProt Q9UKV8); assay: Affinity measurement by surface plasmon resonance (SPR); assay type: binding; conditions: AGO2 immobilized on CM5 chip; peptide serial dilution 625 to 10000 nM; Langmuir 1:1 model; read-out: equilibrium dissociation constant (KD)
T2 construct: made in house; host or cells: High Five insect cells (baculovirus, Bac-To-Bac; virus made in Sf9)
Method: as §1
A Biacore T200 (GE Healthcare) was used to study the binding affinity of the TAT-11 and TAT-26 peptides with recombinant His-tagged AGO2 protein. The recombinant His-AGO2 and TAT peptides were diluted in HBS-P buffer ([…], 150 mM NaCl and 0.005% P20, pH 7.4). To evaluate the binding affinity, recombinant His-AGO2 was immobilized on a CM5 sensor chip (GE Healthcare, BR100012) via amine coupling (˜7000 RU) for 3600 sec at rate of 5 μl/mins, followed by dissociation for 600 s. After injection of each peptide, the surface was regenerated with an injection of 10 mM NaOH. All sensorgrams were double referenced by subtracting the surface effect from the control flow […] and the buffer effect form the blank buffer. The kinetic values Ka, Kd and KD were obtained using Biacore […] Evaluation Software (GE healthcare) assuming the Langmuir 1:1 binding model.

MSI1/AGO2 interaction [4] = molecular target: T1, MSI1/AGO2 interaction; assay: Co-immunoprecipitation of endogenous MSI1 and AGO2 under hypoxia; assay type: cell-based; parameters: endogenous in cells; conditions: 10 μM peptide, hypoxic condition
[5] = tested on: MSI1 translocation into the cytosol in 05 MG cells; assay: MSI1 subcellular translocation (immunostaining, fractionation immunoblot); assay type: cell-based, human; conditions: LMB 10 ng/mL, 2 h pre-treatment; hypoxic and cisplatin treatment
Method: Magnifying power: 200× (top) and 600× (bottom). Quantitation of cells expressing cytoplasmic or nuclear MSI1 is shown in the bar graph on the right. FIG. 1B 05 MG cells pre-treated with or without nuclear export inhibitor leptomycinB (LMB) (10 ng/mL, 2 h) under normoxia or hypoxia conditions for 24 hr were subjected to anti-MSI1 (green) immunostaining and DAPI (blue) nuclear counterstaining. Images were acquired from Carl Zeiss confocal microscope system. The intensity of green fluorescence in nuclear and cytosol was quantified and shown as relative percentage in the graph at the right. […] FIG. 1D provides a schematic showing the mutation sites in the NLS (orange) and NES (red) of human MSI1. All constructs were sub-cloned into p-3×Flag-Myc-CMV expression vector. […] Images were acquired from Carl Zeiss confocal microscope system, and the quantification of fluorescent intensity in the nuclear and cytosolic compartments was shown as relative percentage in the graph at the left. […] Tumor size was measure with a caliper at the indicated time points. […] The tumor size was measured with a caliper at the indicated time points. […]
The ratio of MSI1 expression in each group was presented in the graph. […] Hypoxia-induced apoptosis was withdrawn by the over-expression of wild-type MSI1 but not in mutant MSI1 groups determined by annexin V staining, MTT assay, and colony forming assay. […]

[6] = molecular target: T2, His-tagged AGO2 recombinant protein; assay: PepSpot high-throughput peptide tiling array; assay type: binding; conditions: 27 peptides of MSI1 C-terminus
Method: as §1
To rapidly screen the putative binding hotspots along the C-terminus of MSI1, we mimicked the epitope screening method by dotting the synthetic short peptides on nitrocellulose membrane and incubated with purified AGO2 protein^39. The C-terminus of MSI1 (201-262) was divided into 27 individual synthetic peptides with N-terminal amine attached on the nitrocellulose. Each peptide is 15 amino acids in length and has […] overlapping with the previous neighboring peptide (Suppl. Table IV). The purchased PepSpot membrane (JPT peptide technologies, Berlin, Germany) was firstly rinsed by methanol for 5 minutes, followed by Tris buffer saline supplemented with 0.1% Tween-20 (TBS-T) washing thrice. […]

T2 sequence (Q9UKV8 whole entry): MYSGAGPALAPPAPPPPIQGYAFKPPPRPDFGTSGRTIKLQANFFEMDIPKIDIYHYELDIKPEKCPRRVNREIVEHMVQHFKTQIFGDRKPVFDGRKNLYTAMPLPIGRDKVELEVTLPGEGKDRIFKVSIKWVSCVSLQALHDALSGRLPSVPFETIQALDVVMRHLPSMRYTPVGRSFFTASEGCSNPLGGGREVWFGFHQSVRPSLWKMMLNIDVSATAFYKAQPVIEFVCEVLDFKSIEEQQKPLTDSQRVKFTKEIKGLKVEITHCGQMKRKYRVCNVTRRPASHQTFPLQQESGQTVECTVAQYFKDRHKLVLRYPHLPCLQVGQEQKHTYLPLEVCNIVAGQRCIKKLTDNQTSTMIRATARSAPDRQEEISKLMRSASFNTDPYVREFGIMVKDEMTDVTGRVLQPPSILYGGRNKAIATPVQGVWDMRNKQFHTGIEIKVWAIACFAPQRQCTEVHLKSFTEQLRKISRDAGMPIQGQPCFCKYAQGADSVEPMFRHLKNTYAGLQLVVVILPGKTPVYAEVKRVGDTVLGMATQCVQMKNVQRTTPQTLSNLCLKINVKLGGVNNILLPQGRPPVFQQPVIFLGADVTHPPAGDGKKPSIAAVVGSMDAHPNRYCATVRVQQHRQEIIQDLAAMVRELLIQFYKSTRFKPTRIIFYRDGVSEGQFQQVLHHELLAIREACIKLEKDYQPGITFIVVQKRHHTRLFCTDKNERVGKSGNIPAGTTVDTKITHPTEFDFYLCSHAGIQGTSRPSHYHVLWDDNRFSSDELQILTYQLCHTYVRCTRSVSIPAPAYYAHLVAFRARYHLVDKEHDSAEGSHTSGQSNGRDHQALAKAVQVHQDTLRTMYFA
T1 sequence (Q9UKV8 whole entry): as above

| Molecule | effect of MSI1/AGO2 binding on downstream mRNA [1] | effect on bioluminescent signal of split Gaussia luciferase (MSI1/AGO2 interaction [2]) | time to significant cellular uptake (05 MG cells) | pEC50 (05 MG cells) | half-life (in vitro) [h] | pKd [3] | effect on MSI1/AGO2 interaction (co-IP immunoblot) (MSI1/AGO2 interaction [4]) | MSI1 translocation into the cytosol [5] | binding of recombinant AGO2 to arrayed peptide [6] |
| --- | --- | --- | --- | --- | --- | --- | --- | --- | --- |
| YQFPEFRVERTPLPSGRKKRRQRRRPPQ [TAT-11] | reversed | dramatically turned down the bioluminescent signal in vitro and in vivo | within one hour | 5.04 | ≤ 4 | 5.48 | effectively abrogated the MSI1/AGO2 interaction |  |  |
| CCC(=C/[C@H](C)C/C=C/C(C)=C/[C@@H](C)C(=O)[C@@H](C)[C@H](O)[C@@H](C)C/C(C)=C/C(=O)O)/C=C/[C@@H]1OC(=O)C=C[C@@H]1C [Leptomycin B] |  |  |  |  |  |  |  | strongly reduced MSI1 translocation into the cytosol |  |
| HSLGGPLIATAFTNGGRKKRRQRRRPPQ [TAT-26] | reversed | dramatically turned down the bioluminescent signal in vitro and in vivo | within one hour | 5.04 | ≤ 4 | 5.33 | effectively abrogated the MSI1/AGO2 interaction |  |  |
| YQFPEFRVERTPLPS [compound 11] |  |  |  |  |  |  |  |  | preferentially bound |
| HSLGGPLIATAFTNG [compound 26] |  |  |  |  |  |  |  |  | preferentially bound |
